Test results from ChEMBL document CHEMBL3758105 (J Med Chem, 2016).
In brackets after ≈: the same amount, converted by molar mass.

Experiments:
CYP2C9 = CYP2C9 (Homo sapiens, UniProt P11712); assay: Inhibition of CYP2C9 in human liver microsomes assessed as reduction of diclofenac metabolism at 3 uM after 8 mins; format: ADME; details: probe diclofenac
Collagenase 3 = Collagenase 3 (Homo sapiens, UniProt P45452); assay: Inhibition of full length human recombinant MMP13 using MCA-Arg-Pro-Leu-Gly-Leu-Dpa-Ala-Arg-Glu-Arg-NH2 as substrate preincubated for 60 mins followed by substrate addition by fluorescence assay
Stromelysin-1 = Stromelysin-1 (Homo sapiens, UniProt P08254); assay: Inhibition of MMP3 (unknown origin) catalytic domain using MCA-Arg-Pro-Leu-Gly-Leu-Dpa-Ala-Arg-Glu-Arg-NH2 as substrate preincubated for 60 mins followed by substrate addition by fluorescence assay
Chain of Stromelysin-1 (P08254 whole entry, the tested form may be a part): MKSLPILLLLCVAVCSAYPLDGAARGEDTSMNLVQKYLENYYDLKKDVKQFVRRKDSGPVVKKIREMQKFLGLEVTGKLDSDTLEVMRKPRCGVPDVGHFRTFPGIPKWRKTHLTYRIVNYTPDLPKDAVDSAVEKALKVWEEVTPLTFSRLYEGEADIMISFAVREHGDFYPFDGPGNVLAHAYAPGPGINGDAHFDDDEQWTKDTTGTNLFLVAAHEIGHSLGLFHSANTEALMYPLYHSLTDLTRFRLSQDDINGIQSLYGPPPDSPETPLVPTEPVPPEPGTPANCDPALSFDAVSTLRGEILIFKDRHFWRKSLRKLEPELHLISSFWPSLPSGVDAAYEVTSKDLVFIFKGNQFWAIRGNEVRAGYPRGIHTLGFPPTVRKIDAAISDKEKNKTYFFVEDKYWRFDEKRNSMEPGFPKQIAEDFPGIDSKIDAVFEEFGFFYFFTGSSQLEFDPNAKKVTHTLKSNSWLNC

[1] = Oral bioavailability in Sprague-Dawley rat at 1 mg/kg; format: ADME, organism-based; details: in vivo
[2] = Clearance in Sprague-Dawley rat at 1 mg/kg, iv administered as bolus dose by LC-MS/MS analysis; format: ADME, organism-based; details: in vivo
[3] = Intrinsic clearance in human liver microsomes measured over 40 mins by HPLC/MS analysis; format: ADME; details: read-out: CLH
[4] = Intrinsic clearance in rat liver microsomes measured over 40 mins by HPLC/MS analysis; format: ADME; details: read-out: CLH
physchem = details: buffer, pH 7.4
[5] = Half life of the compound assessed as compound rearrangement; format: physicochemical
Canis familiaris [6] = assay: Free AUC in beagle dog at 1 mg/kg, po administered as cassette dosing; format: ADME, organism-based, Canis lupus familiaris; details: in vivo
[7] = Thermodynamic solubility of the compound in crystalline solid form in phosphate buffer at pH 7.4; format: physicochemical; details: read-out: Therm_solubility
[8] = Plasma protein binding in human; format: ADME, cell-free; details: read-out: PPB (converted)
[9] = Plasma protein binding in beagle dog at 1 mg/kg, po administered as cassette dosing; format: ADME, organism-based, Canis lupus familiaris; details: read-out: PPB (converted)
Canis familiaris [10] = assay: Free Cmax in beagle dog at 1 mg/kg, po administered as cassette dosing; format: ADME, organism-based, Canis lupus familiaris; details: in vivo
[11] = target: T1, Organic anion transporter 3 (Homo sapiens, UniProt Q8TCC7); assay: Inhibition of human OAT3 expressed in HEK cells assessed as reduction of [3H]-estrone sulfate uptake by radioactivity counting analysis; format: cell-based, HEK293
T1 sequence (Q8TCC7 whole entry): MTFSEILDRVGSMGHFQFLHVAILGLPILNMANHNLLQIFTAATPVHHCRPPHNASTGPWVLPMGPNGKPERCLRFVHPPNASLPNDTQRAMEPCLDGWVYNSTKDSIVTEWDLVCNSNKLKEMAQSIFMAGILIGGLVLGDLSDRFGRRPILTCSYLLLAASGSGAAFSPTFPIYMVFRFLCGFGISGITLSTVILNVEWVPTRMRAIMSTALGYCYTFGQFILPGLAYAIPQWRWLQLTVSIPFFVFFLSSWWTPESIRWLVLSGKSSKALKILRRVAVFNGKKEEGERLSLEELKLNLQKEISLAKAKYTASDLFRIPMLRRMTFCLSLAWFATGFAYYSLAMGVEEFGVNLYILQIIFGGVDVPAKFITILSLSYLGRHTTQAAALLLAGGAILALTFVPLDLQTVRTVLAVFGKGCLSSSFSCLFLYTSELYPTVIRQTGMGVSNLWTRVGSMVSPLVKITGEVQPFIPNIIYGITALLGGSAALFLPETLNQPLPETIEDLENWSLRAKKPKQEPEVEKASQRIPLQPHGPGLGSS

[12] = target: Matrix metalloproteinase-14 (Homo sapiens, UniProt P50281); assay: Inhibition of MMP14 (unknown origin) catalytic domain using MCA-Arg-Pro-Leu-Gly-Leu-Dpa-Ala-Arg-Glu-Arg-NH2 as substrate preincubated for 60 mins followed by substrate addition by fluorescence assay
[13] = Clearance in Sprague-Dawley rat at 0.2 mg/kg, iv administered as cassette bolus dose by LC-MS/MS analysis; format: ADME, organism-based; details: in vivo

Chain of CYP2C9 (P11712 whole entry): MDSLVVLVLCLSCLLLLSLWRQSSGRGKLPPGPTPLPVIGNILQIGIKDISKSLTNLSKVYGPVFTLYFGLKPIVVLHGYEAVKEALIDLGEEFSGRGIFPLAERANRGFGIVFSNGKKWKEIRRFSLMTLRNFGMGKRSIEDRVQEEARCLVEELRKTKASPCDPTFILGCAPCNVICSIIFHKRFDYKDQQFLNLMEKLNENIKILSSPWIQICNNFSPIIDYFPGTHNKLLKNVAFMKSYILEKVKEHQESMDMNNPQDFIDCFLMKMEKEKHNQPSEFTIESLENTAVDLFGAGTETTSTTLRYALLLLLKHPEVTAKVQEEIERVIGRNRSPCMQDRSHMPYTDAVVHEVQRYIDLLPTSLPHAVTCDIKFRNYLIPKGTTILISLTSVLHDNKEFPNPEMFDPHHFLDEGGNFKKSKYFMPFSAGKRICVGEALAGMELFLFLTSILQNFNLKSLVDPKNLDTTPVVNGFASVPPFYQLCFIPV

## Cc1cccc(CNC(=O)c2cc(-c3nnn(C[C@H]4CC[C@H](CO)CC4)n3)cc(C)n2)c1
CYP2C9
  inhibition at 8 min, 3 µM: 93%
Collagenase 3
  Ki: 0.0472 µM

## COc1cccc(CNC(=O)c2cc(-c3nnn(C[C@H]4CC[C@@H](NS(C)(=O)=O)CC4)n3)cc(C)n2)c1
Collagenase 3
  Ki: 0.0082 µM
Stromelysin-1
  Ki: > 10 µM

## COc1cccc(CNC(=O)c2cc(-c3nnn(CC4CCCOC4)n3)cc(C)n2)c1 (racemic)
Collagenase 3
  Ki: 0.0165 µM
Stromelysin-1
  Ki: > 10 µM

## COc1cc(CNC(=O)c2cc(-c3nnn(C[C@@H]4CO[C@@H](CO)CO4)n3)nc(C)n2)ccc1F
[1]
  bioavailability: 113%
[2]
  clearance: 0.588 L/h/kg
[3]
  microsomal CLint: < 8 µL/min/mg
Collagenase 3
  Ki: 0.0042 µM
Stromelysin-1
  Ki: > 10 µM

## Cc1cc(-c2nnn(C[C@H]3CC[C@H](CO)CC3)n2)cc(C(=O)NCc2ccccc2)n1
CYP2C9
  inhibition at 8 min, 3 µM: 78%
Collagenase 3
  Ki: 0.119 µM

## COc1cccc(CNC(=O)c2cc(-c3nnn(CC4CCN(C(C)=O)CC4)n3)cc(C)n2)c1
Collagenase 3
  Ki: 0.0166 µM
Stromelysin-1
  Ki: > 10 µM

## Cc1cc(-c2nnn(C[C@H]3CC[C@H](CO)CC3)n2)cc(C(=O)NCc2ccc(F)cc2)n1
CYP2C9
  inhibition at 8 min, 3 µM: 56%
Collagenase 3
  Ki: 0.0329 µM

## Cc1cc(-c2nnn(C[C@H]3CC[C@H](CO)CC3)n2)cc(C(=O)NCc2ccc(F)c(Cl)c2)n1
CYP2C9
  inhibition at 8 min, 3 µM: 90%
Collagenase 3
  Ki: 0.004 µM

## Cc1cc(-c2nnn(C[C@H]3CC[C@H](CO)CC3)n2)cc(C(=O)NCc2ccc(F)c(C)c2)n1
CYP2C9
  inhibition at 8 min, 3 µM: 96%
Collagenase 3
  Ki: 0.0038 µM

## COc1cccc(CNC(=O)c2cc(-c3nnn(CC4CCCCC4)n3)cc(C)n2)c1
[2]
  clearance: 3.81 L/h/kg
[4]
  microsomal CLint: 98.5 µL/min/mg
[3]
  microsomal CLint: 41.7 µL/min/mg
physchem
  logD: 4.37
Collagenase 3
  Ki: 0.0336 µM
Stromelysin-1
  Ki: > 10 µM

## O=C(O)Cc1ccccc1Nc1c(Cl)cccc1Cl [DICLOFENAC]
[5]
  half-life: 0.5 h

## COc1cccc(CNC(=O)c2cc(-c3nnn(C[C@H]4CO[C@H](CO)CO4)n3)nc(C)n2)c1 (racemic)
[1]
  bioavailability: 65%
[2]
  clearance: 0.636 L/h/kg
Canis familiaris [6]
  fAUC: 3240 nM·h
[7]
  solubility thermodynamic: 237 µM (≈ 108 µg/mL)
[8]
  fraction unbound: 0.31
[3]
  microsomal CLint: < 8 µL/min/mg
[9]
  fraction unbound: 0.37
Collagenase 3
  Ki: 0.0058 µM
Canis familiaris [10]
  fCmax: 580 nM
Stromelysin-1
  Ki: > 10 µM

## COc1cccc(CNC(=O)c2cc(-c3nnn(C[C@H]4CC[C@@H](CO)CC4)n3)cc(C)n2)c1
Collagenase 3
  Ki: 0.0041 µM
Stromelysin-1
  Ki: 8.73 µM

## COc1ccc(CNC(=O)c2cc3c(=O)n(Cc4ccc(C(=O)O)cc4)cnc3cn2)cc1
[11]
  IC50: 59 µM

## CNC(=O)[C@@H](NC(=O)[C@H](CC(C)C)[C@H](O)C(=O)NO)C(C)(C)C
[12]
  IC50: 10 µM

## COc1cccc(CNC(=O)c2cc(-c3nnn(C[C@H]4CO[C@H](CO)CO4)n3)cc(C)n2)c1 (racemic)
[1]
  bioavailability: 48%
[2]
  clearance: 0.462 L/h/kg
Canis familiaris [6]
  fAUC: 1230 nM·h
[4]
  microsomal CLint: 15.7 µL/min/mg
[7]
  solubility thermodynamic: 28 µM (≈ 12.7 µg/mL)
[8]
  fraction unbound: 0.14
[3]
  microsomal CLint: < 8 µL/min/mg
[9]
  fraction unbound: 0.24
physchem
  logD: 2.04
Collagenase 3
  Ki: 0.0117 µM
Canis familiaris [10]
  fCmax: 66 nM
Stromelysin-1
  Ki: > 10 µM

## Cc1cc(-c2nnn(C[C@H]3CC[C@H](CO)CC3)n2)cc(C(=O)NCc2ccc(F)c(F)c2)n1
CYP2C9
  inhibition at 8 min, 3 µM: 83%
Collagenase 3
  Ki: 0.0293 µM

## Cn1c(=O)n(Cc2ccc(C(=O)O)cc2)c(=O)c2cc(C#CCc3ccccc3)ccc21
[11]
  IC50: 18 µM

## COc1cccc(CNC(=O)c2cc(-c3nnn(CC4CCCCO4)n3)cc(C)n2)c1 (single isomer, unassigned; (-))
[2]
  clearance: 3.27 L/h/kg
[4]
  microsomal CLint: 192 µL/min/mg
[3]
  microsomal CLint: 53.1 µL/min/mg
physchem
  logD: 3.22
Collagenase 3
  Ki: 0.0077 µM

## COc1cccc(CNC(=O)c2cc(-c3nnn(CC4COCCO4)n3)cc(C)n2)c1 (racemic)
[2]
  clearance: 1.55 L/h/kg
[4]
  microsomal CLint: 74 µL/min/mg
[3]
  microsomal CLint: < 8 µL/min/mg
physchem
  logD: 2.49
Collagenase 3
  Ki: 0.0141 µM
Stromelysin-1
  Ki: > 10 µM

## Cc1cc(-c2nnn(C[C@H]3CC[C@H](CO)CC3)n2)cc(C(=O)NCc2ccc(F)c(C(F)(F)F)c2)n1
CYP2C9
  inhibition at 8 min, 3 µM: 90%
Collagenase 3
  Ki: 0.0063 µM

## Cc1cc(-c2nnn(C[C@H]3CC[C@H](CO)CC3)n2)cc(C(=O)NCc2cccc(Cl)c2)n1
Collagenase 3
  Ki: 0.0385 µM

## COc1cccc(CNC(=O)c2cc(-c3nnn(C[C@H]4CC[C@@H](O)CC4)n3)cc(C)n2)c1
Collagenase 3
  Ki: 0.0109 µM
Stromelysin-1
  Ki: > 10 µM

## COc1cc(CNC(=O)c2cc(-c3nnn(C[C@H]4CC[C@H](CO)CC4)n3)cc(C)n2)ccc1F
CYP2C9
  inhibition at 8 min, 3 µM: 39%
Collagenase 3
  Ki: 0.0012 µM

## COc1cccc(CNC(=O)c2cc(-c3nnn(C[C@H]4CC[C@H](C(=O)O)CC4)n3)cc(C)n2)c1
Stromelysin-1
  Ki: > 10 µM

## COc1cccc(CNC(=O)c2cc(-c3nnn(CC4CCN(S(C)(=O)=O)CC4)n3)cc(C)n2)c1
Collagenase 3
  Ki: 0.0058 µM
Stromelysin-1
  Ki: > 10 µM

## Cc1cc(-c2nnn(C[C@H]3CC[C@H](C(=O)O)CC3)n2)cc(C(=O)NCc2ccc(F)cc2)n1
[11]
  IC50: 6 µM
[5]
  half-life: 67 h

## COc1cccc(CNC(=O)c2cc(-c3nnn(C[C@H]4CC[C@H](C#N)CC4)n3)cc(C)n2)c1
Collagenase 3
  Ki: 0.0027 µM
Stromelysin-1
  Ki: 7.21 µM

## COc1cccc(CNC(=O)c2cc(-c3nnn(C[C@H]4CC[C@H](NS(C)(=O)=O)CC4)n3)cc(C)n2)c1
[3]
  microsomal CLint: < 8 µL/min/mg
[13]
  clearance: 2.56 L/h/kg
Collagenase 3
  Ki: 0.00025 µM
Stromelysin-1
  Ki: > 10 µM

## Cc1cc(-c2nnn(C[C@H]3CC[C@H](CO)CC3)n2)cc(C(=O)NCc2cccc(F)c2)n1
Collagenase 3
  Ki: 0.11 µM

## COc1cccc(CNC(=O)c2cc(-c3nnn(C[C@H]4CC[C@H](NC(C)=O)CC4)n3)cc(C)n2)c1
[3]
  microsomal CLint: 24.7 µL/min/mg
[13]
  clearance: 4.66 L/h/kg
Collagenase 3
  Ki: 0.002 µM
Stromelysin-1
  Ki: > 10 µM

## COc1cccc(CNC(=O)c2cc(-c3nnn(CC4CCCCO4)n3)cc(C)n2)c1 (single isomer, unassigned; (+))
Collagenase 3
  Ki: 0.0168 µM
Stromelysin-1
  Ki: > 10 µM

## COc1cccc(CNC(=O)c2cc(-c3nnn(C[C@H]4CC[C@H](O)CC4)n3)cc(C)n2)c1
Collagenase 3
  Ki: 0.0045 µM
Stromelysin-1
  Ki: > 10 µM

## Cc1cc(-c2nnn(C[C@H]3CC[C@H](CO)CC3)n2)cc(C(=O)NCc2cccc(C(F)(F)F)c2)n1
CYP2C9
  inhibition at 8 min, 3 µM: 94%
Collagenase 3
  Ki: 0.0238 µM

## COc1cccc(CNC(=O)c2cc(-c3nnn(C[C@H]4CC[C@H](C(N)=O)CC4)n3)cc(C)n2)c1
Collagenase 3
  Ki: 0.0212 µM

## COc1cccc(CNC(=O)c2cc(-c3nnn(C[C@H]4CC[C@H](CO)CC4)n3)cc(C)n2)c1
CYP2C9
  inhibition at 8 min, 3 µM: 66%
[2]
  clearance: 4.6 L/h/kg
[4]
  microsomal CLint: 94.9 µL/min/mg
[3]
  microsomal CLint: 32.7 µL/min/mg
physchem
  logD: 3.57
Collagenase 3
  Ki: 0.0021 µM
Stromelysin-1
  Ki: > 10 µM

## COc1cccc(CNC(=O)c2cc(-c3nnn(C[C@H]4CC[C@@H](NC(C)=O)CC4)n3)cc(C)n2)c1
Collagenase 3
  Ki: 0.0014 µM
Stromelysin-1
  Ki: > 10 µM
